{"source": "patent US9827219B2", "about": "“Compositions and methods for lowering levels of high-sensitivity C-reactive protein (HS-CRP) in a subject” (priority 2012, dated 2017)", "tested_on": "cognitive performance in subjects with AAMI", "assay": "CDR computerized cognitive test battery, 6-week pilot study in Age-Associated Memory Impairment (Example 1)", "assay_type": "in vivo, human", "conditions": "for Quality of Episodic Secondary Memory, LS mean difference vs placebo: overall", "protocol": "A single-center, 6-week, double-blind, randomizes, parallel-group, placebo-controlled, dose-ranging pilot study was performed to evaluate the efficacy, tolerability, and safety of >96% ethyl-EPA in subjects with subjective and objective memory impairment according to generally accepted criteria for Age-Associated Memory Impairment (“AAMI”). The primary objective of the study was to determine the effect of >96% ethyl-EPA 1 g, 2 g, and 4 g daily, compared to placebo, on cognitive performance in subjects with AAMI.\nThe population for this study was men and women between ages 50 and 70 with self-reported complaints of memory loss, subjective and objective cognitive impairment with a score of at least one standard deviation below that of the mean for age-matched elderly population as determined by the total score of between 13 and 20 from the Paired Associated Learning (“PAL”) subset of the Wechsler Memory Scale, evidence of adequate intellectual function as determined by a scaled score of at least 9 (raw score of at least 32) on the Vocabulary subtest of the Wechsler Adult Intelligence Scale and absence of dementia as determined by a score of 24 or higher on the Mini-Mental State Examination (“MMSE”).\nNinety-four subjects were randomized into one of six groups: 1 g E-EPA daily (n=23), 2 g E-EPA daily (n=24), 4 g E-EPA daily (n=24), 1 g placebo daily (n=7), 2 g placebo daily (n=8), and 4 g placebo daily (n=8). E-EPA was provided as 500 mg soft gel capsules containing >96% E-EPA and 0.2% dl-α-tocopherol as an antioxidant. Placebo capsules contained 467 mg of liquid paraffin and 0.2% dl-α-tocopherol. Ninety-one subjects completed the study. Two subjects in the 2 g E-EPA group and one subject in the 2 g placebo group discontinued the study.\nThe study consisted of a screening visit, a training visit, and four study visits. At the screening visit, subjects' eligibility was determined through cognitive tests (verbal paired associated learning [PAL] subscale, vocabulary subtest, Memory Assessment Clinics Questionnaire [MAC-Q], mini mental state evaluation [MMSE] and MINI [mini international neuropsychiatric interview; sections 1 and 2 of Diagnostic and Statistical Manual of Mental Disorders, 4th Edition (DSM-IV) plus dysthymia]), haematology, clinical chemistry and 12-lead electrocardiogram (ECG). At the training visit, subjects were shown how to use the CDR computerized system. Subjects took study drug for 6 weeks and on Days 0, 14, 28 and 42, subjects underwent the CDR cognitive test battery.\nA selection of tasks from the CDR computerized cognitive assessment system were administered at Visit 2 (training visit), Visit 3 (baseline), Visit 4 (Day 14), Visit 5 (Day 28) and Visit 6 (Day 42). Parallel forms of the tests were presented at each testing session. All tasks were computer-controlled, the information presented on high resolution monitors, and the responses recorded via a response model containing two buttons: one marked ‘no’ and the other ‘yes’. Five CDR composite scores were used as the primary/secondary outcome variables. The task titles were: • Word Presentation • Immediate Word Recall • Picture Presentation • Simple Reaction Time • Digit Vigilance • Choice Reaction Time • Spatial Working Memory • Numeric Working Memory • Delayed Word Recall • Word Recognition • Picture Recognition • Bond-Lader Visual Analogue Scales of Mood and Alertness • Screen, Using the Computer Mouse\nTo ensure consistency of approach, full training on the cognitive tests and CDR test battery was provided to study site staff and study subjects. The results of each variable were automatically recorded using the machine interface developed by CDR.\nSummary statistics were provided for the ITT and Study Per Protocol Populations separately for all composite scores, major and supportive variables. Summary statistics were performed for both the unadjusted and difference from baseline data (i.e. the difference from the time matched predose assessments on Day 0). […]", "key": {"[1]": {"conditions": "ITT, ANCOVA, 1, 2, 4 g daily vs placebo"}}, "data": [{"smiles": "CC/C=C\\C/C=C\\C/C=C\\C/C=C\\C/C=C\\CCCC(=O)OCC", "note": "[AMR101, all-cis eicosa-5,8,11,14,17-pentaenoic acid ethyl ester]", "values": [{"measurement": "Self-Rated Contentment, LS mean difference to placebo", "setting": "ITT", "value": "no statistically significant effects"}, {"measurement": "Immediate Word Recall Accuracy, LS mean difference vs placebo", "setting": "ITT, 1 g, AM 1, p=0.040", "value": "statistically significant decreases"}, {"measurement": "Immediate Word Recall Accuracy, LS mean difference vs placebo", "setting": "ITT, 1 g, Day 14, p=0.028", "value": "statistically significant decreases"}, {"measurement": "Picture Recognition Speed, LS mean difference vs placebo", "setting": "ITT, 1 g, Day 14 at AM 2, p=0.084", "value": "trends for benefits versus placebo"}, {"measurement": "Immediate Word Recall Accuracy, LS mean difference vs placebo", "setting": "ITT, 1 g, Day 14 at PM 2, p=0.020", "value": "statistically significant decreases"}, {"measurement": "Word Recognition Sensitivity Index, LS mean difference vs placebo", "setting": "ITT, 1 g, Day 28, p=0.024", "value": "statistically significant decreases"}, {"measurement": "Picture Recognition Speed, LS mean difference vs placebo", "setting": "ITT, 1 g, Day 28 at AM 1, p=0.085", "value": "trends for benefits versus placebo"}, {"measurement": "Picture Recognition Sensitivity Index, LS mean difference vs placebo", "setting": "ITT, 1 g, Day 28 at AM 2, p=0.017", "value": "statistically significant decrease"}, {"measurement": "Picture Recognition Sensitivity Index, LS mean difference vs placebo", "setting": "ITT, 1 g, Day 28 at PM 2, p=0.040", "value": "statistically significant decrease"}, {"measurement": "Quality of Episodic Secondary Memory, LS mean difference vs placebo", "setting": "ITT, 1 g, p=0.040", "value": "statistically significant decreases versus placebo"}, {"measurement": "Immediate Word Recall Accuracy, LS mean difference vs placebo", "setting": "ITT, 2 g, AM 1, p=0.028", "value": "statistically significant decreases"}, {"measurement": "Immediate Word Recall Accuracy, LS mean difference vs placebo", "setting": "ITT, 2 g, Day 28, p=0.017", "value": "statistically significant decreases"}, {"measurement": "Self-Rated Alertness, LS mean difference vs placebo", "setting": "ITT, 2 g, Day 28, p=0.047", "value": "statistically significant decrease in ratings"}, {"measurement": "Immediate Word Recall Accuracy, LS mean difference vs placebo", "setting": "ITT, 2 g, Day 28 at AM 1, p=0.006", "value": "statistically significant decreases"}, {"measurement": "Self-Rated Alertness, LS mean difference vs placebo", "setting": "ITT, 2 g, Day 28 at AM 2, p=0.041", "value": "statistically significant decrease in ratings"}, {"measurement": "Quality of Episodic Secondary Memory, LS mean difference vs placebo", "setting": "ITT, 2 g, p=0.035", "value": "statistically significant decreases versus placebo"}, {"measurement": "Spatial Working Memory Speed, LS mean difference vs placebo", "setting": "ITT, 4 g, Day 14 at PM 1, p=0.048", "value": "statistically significant benefit versus placebo"}, {"measurement": "Word Recognition Sensitivity Index, LS mean difference vs placebo", "setting": "ITT, 4 g, Day 28 at PM 2, p=0.030", "value": "statistically significant decrease"}, {"measurement": "Word Recognition Sensitivity Index, LS mean difference vs placebo", "setting": "ITT, 4 g, Day 42, p=0.038", "value": "statistically significant decreases"}, {"measurement": "Spatial Working Memory Speed, LS mean difference vs placebo", "setting": "ITT, 4 g, Day 42 at AM 1, p=0.061", "value": "trend for a benefit"}, {"measurement": "Word Recognition Sensitivity Index, LS mean difference vs placebo", "setting": "ITT, 4 g, PM 2, p=0.045", "value": "statistically significant decrease"}, {"measurement": "Continuity of Attention", "setting": "ITT, ANCOVA", "value": "no statistically significant effect of treatment"}, {"measurement": "Delayed Word Recall Accuracy", "setting": "ITT, ANCOVA", "value": "no statistically significant effects of treatment"}, {"measurement": "Digit Vigilance Targets Detected", "setting": "ITT, ANCOVA", "value": "no statistically significant effect of treatment"}, {"measurement": "Immediate Word Recall Accuracy", "setting": "ITT, ANCOVA", "value": "no statistically significant effects of treatment"}, {"measurement": "Numeric Working Memory Speed", "setting": "ITT, ANCOVA", "value": "no statistically significant effects of treatment"}, {"measurement": "Picture Recognition Sensitivity Index", "setting": "ITT, ANCOVA", "value": "no statistically significant effects of treatment"}, {"measurement": "Picture Recognition Speed", "setting": "ITT, ANCOVA", "value": "no statistically significant effects of treatment"}, {"measurement": "Quality of Episodic Secondary Memory", "setting": "ITT, ANCOVA", "value": "no statistically significant effect of treatment"}, {"measurement": "Self-Rated Alertness", "setting": "ITT, ANCOVA", "value": "no statistically significant effect of treatment"}, {"measurement": "Self-Rated Calmness", "setting": "ITT, ANCOVA", "value": "no statistically significant effect of treatment"}, {"measurement": "Spatial Working Memory Speed", "setting": "ITT, ANCOVA", "value": "no statistically significant effects of treatment"}, {"measurement": "Speed of Memory", "setting": "ITT, ANCOVA", "value": "no statistically significant effects of treatment"}, {"measurement": "Word Recognition Sensitivity Index", "setting": "ITT, ANCOVA", "value": "no statistically significant effects of treatment"}, {"measurement": "Word Recognition Speed", "setting": "ITT, ANCOVA", "value": "no statistically significant effects of treatment"}, {"measurement": "Digit Vigilance Speed", "setting": "[1]", "value": "no statistically significant effects of treatment"}, {"measurement": "Power of Attention", "setting": "[1]", "value": "no statistically significant effect of treatment"}, {"measurement": "Simple Reaction Time", "setting": "[1]", "value": "no statistically significant effects of treatment"}, {"measurement": "Self-Rated Contentment", "setting": "ITT, ANCOVA, p<0.001", "value": "statistically significant treatment by day interaction"}, {"measurement": "Choice Reaction Time", "setting": "ITT, ANCOVA, p=0.011", "value": "statistically significant treatment by day interaction"}, {"measurement": "Spatial Working Memory Sensitivity Index", "setting": "ITT, ANCOVA, p=0.015", "value": "statistically significant treatment by day interaction"}, {"measurement": "Quality of Working Memory", "setting": "ITT, ANCOVA, p=0.019", "value": "statistically significant treatment by day interaction"}, {"measurement": "Numeric Working Memory Sensitivity Index", "setting": "ITT, ANCOVA, p=0.089", "value": "statistical trend for a treatment by day interaction"}, {"measurement": "Power of Attention, LS mean difference active vs placebo", "setting": "ITT, any time-point", "value": "no LS mean difference between active treatment and placebo"}, {"measurement": "Continuity of Attention", "setting": "Study Per Protocol, ANCOVA", "value": "no statistically significant effect of treatment"}, {"measurement": "Digit Vigilance Targets Detected", "setting": "Study Per Protocol, ANCOVA, p=0.040", "value": "statistically significant treatment by time-point interaction"}, {"measurement": "Self-Rated Contentment, LS mean difference to placebo", "setting": "Study Per-Protocol", "value": "no statistically significant effects"}, {"measurement": "Immediate Word Recall Accuracy, LS mean difference to placebo", "setting": "Study Per-Protocol, 1 g, AM 1, p=0.038", "value": "statistically significant decreases"}]}]}
